In general, EC50 refers to the concentration at which the effect is half-maximal. A word on the IC50: it is the concentration at which inhibition is half-maximal. One may read the Kd as the free concentration of one partner at which half of the binding sites on the other are occupied at equilibrium, for simple one-to-one binding.

Each structure is given as a SMILES string.

Experiment [1] has as its system BCL6 reporter construct (3xBCL6-TK-Luc) in SuDHL4 cells. In words: Cell-based luciferase assay. The note with it: Homo sapiens, SU-DHL-4, 48 h, read-out: Luciferase-Assay EC50, uM), SuDHL4-3xBCL6-TK-Luc cells, two days, high dose 10 uM. The essentials:
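SuDHL4 cells stably carrying a 3×BCL6-site TK-promoter firefly luciferase reporter, seeded at 15,000 cells/well, were dosed over a 10-point range (top 10 uM) and grown two days at 37 °C, 5% CO2. Luminescence then read after adding neolite reagent at room temperature.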

Experiment [2] relates to Karpas422 cells. In words: Tumor cell growth inhibition assay. It counts as cell-based. The note with it: Homo sapiens, KARPAS-422, 144 h, read-out: Tumor Growth Inhibition in Karpas-422 (IC50, uM), Karpas422 cells, six days, ATPlite. The method in brief: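 Karpas422 cells (2,000/well) in Alpha-MEM with 10% FBS dosed across 10 concentrations (top 5 uM) and grown six days at 37° C., 5% CO2. Viability read as ATPlite luminescence.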
Background: Cellular ATP, detected with luciferase, serves as a proxy for viable cell number.

In experiment [3] the target is BCL6 BTB domain (Homo sapiens (Human), UniProt P41182). In words: Surface plasmon resonance (SPR) assay. It counts as binding. Particulars: BCL6 BTB domain captured on SA chip, single cycle kinetics. (In general: Surface plasmon resonance follows binding to a sensor surface in real time, without labels.)

For the molecule `CN1CC2(CCN(c3cc(NC(=O)Cn4cc(-c5cc(C(N)=O)c(O)c(F)c5F)c5c(=O)n(C)cnc54)c(Cl)cn3)C2)C1` [Compound I-483], the EC50 in experiment [1] stood at 10 µM. In experiment [2], the IC50 amounted to 10 µM. In addition, binding in experiment [3] was put at a Kd of 0.128 µM.
`CN1CC2(CCN(c3cc(NC(=O)Cn4cc(-c5cc(F)c(O)c(C(N)=O)c5)c5c(=O)n(C)cnc54)c(Cl)cn3)C2)C1` [Compound I-484]: in experiment [1], the EC50 was 21.6 µM. The IC50 in experiment [2] worked out at 10 µM. The Kd in experiment [3] is 0.0403 µM.
Taken in the same sequence, the figures for `CN1CCC2(C1)CN(c1cc(NC(=O)Cn3cc(-c4cc(F)c(O)c(C(N)=O)c4)c4c(=O)n(C)cnc43)c(Cl)cn1)C2` [Compound I-486] were 6.95 µM, 10 µM and 0.03 µM.
In the same order, the values of `C[C@H]1CN(C)C[C@H](C)N1c1cc(NC(=O)Cn2cc(-c3cc(C(N)=O)c(O)c(F)c3F)c3c(=O)n(C)cnc32)c(Cl)c(F)n1` [Compound I-487] are 1.29 µM, 1.8 µM and 0.122 µM.
In the same order, the values of `Cn1cnc2c(c(-c3cc(C(N)=O)c(O)c(F)c3F)cn2CC(=O)Nc2cc(N3CCC3)nc(F)c2Cl)c1=O` [Compound I-488] are 1.28 µM, 0.417 µM and 0.0716 µM.

(Values after patent US11518764B2, “Substituted heteroaryls as inhibitors of the BCL6 BTB domain protein-protein interaction” (Ontario Institute for Cancer Research (OICR), priority 2018, dated 2022).)
